This is an account of results in ChEMBL document CHEMBL1250518, “Nonsteroidal dissociated glucocorticoid agonists containing azaindoles as steroid A-ring mimetics” (J Med Chem, 2010).

One data set concerns Mus musculus. Briefly: Antiinflammatory effect in collagen and Freund's complete adjuvant-induced B10.RIII mouse arthritis model assessed as inhibition of disease progression at 30 mg/kg, po qd for 5 weeks. It is filed as functional. The note with it: 840 h.
Data set [1] addresses T1, Mineralocorticoid receptor (Homo sapiens, UniProt P08235).
T1 sequence (P08235 whole entry): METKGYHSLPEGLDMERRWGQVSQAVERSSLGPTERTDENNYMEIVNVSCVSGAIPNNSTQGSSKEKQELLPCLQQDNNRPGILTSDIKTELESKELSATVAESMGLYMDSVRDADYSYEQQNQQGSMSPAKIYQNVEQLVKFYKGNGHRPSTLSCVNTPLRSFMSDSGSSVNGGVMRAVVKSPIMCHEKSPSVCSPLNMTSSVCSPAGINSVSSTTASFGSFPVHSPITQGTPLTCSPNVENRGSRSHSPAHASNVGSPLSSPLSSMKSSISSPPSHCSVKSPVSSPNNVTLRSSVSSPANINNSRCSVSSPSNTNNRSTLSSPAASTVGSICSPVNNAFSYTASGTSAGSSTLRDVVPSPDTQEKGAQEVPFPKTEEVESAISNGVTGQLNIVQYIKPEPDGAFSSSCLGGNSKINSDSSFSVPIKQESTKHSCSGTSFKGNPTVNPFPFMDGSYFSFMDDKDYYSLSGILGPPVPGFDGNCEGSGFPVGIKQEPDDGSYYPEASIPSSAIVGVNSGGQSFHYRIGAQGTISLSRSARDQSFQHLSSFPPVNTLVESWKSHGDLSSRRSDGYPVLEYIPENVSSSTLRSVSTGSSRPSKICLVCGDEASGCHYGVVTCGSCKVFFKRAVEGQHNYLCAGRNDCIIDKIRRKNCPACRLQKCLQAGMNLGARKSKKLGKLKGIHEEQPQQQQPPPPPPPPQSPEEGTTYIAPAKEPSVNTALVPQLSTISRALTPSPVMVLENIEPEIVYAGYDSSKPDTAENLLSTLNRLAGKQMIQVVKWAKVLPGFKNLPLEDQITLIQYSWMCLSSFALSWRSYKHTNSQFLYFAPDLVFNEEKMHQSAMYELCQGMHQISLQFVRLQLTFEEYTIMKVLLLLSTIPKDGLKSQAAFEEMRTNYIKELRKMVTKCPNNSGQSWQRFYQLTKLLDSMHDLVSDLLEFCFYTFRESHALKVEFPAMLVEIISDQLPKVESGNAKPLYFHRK
Briefly: Binding affinity to mineralocorticoid receptor expressed in baculovirus-infected insect cells using tetramethylrhodamine labeled Dexamethasone by fluorescence polarization microplate assay.

Data set [2] is described as follows: Volume of distribution at steady state in Sprague-Dawley rat at 5 mg/kg, iv. It is filed as ADME, organism-based. Also on record: dose 5 mg/kg, route intravenous. The note with it: in vivo, read-out: Vdss.
The subject of another data set is Rattus norvegicus. Kind of data set: Oral bioavailability in Sprague-Dawley rat at 30 mg/kg. It counts as ADME, organism-based. As to conditions: in vivo.
The nature of data set [3]: Half life in Sprague-Dawley rat at 5 mg/kg, iv. It is filed as ADME, organism-based. Also on record: dose 5 mg/kg, route intravenous. As to conditions: in vivo.
Data set [4] addresses T2, Glucocorticoid receptor (Homo sapiens, UniProt P04150).
T2 sequence (P04150 whole entry): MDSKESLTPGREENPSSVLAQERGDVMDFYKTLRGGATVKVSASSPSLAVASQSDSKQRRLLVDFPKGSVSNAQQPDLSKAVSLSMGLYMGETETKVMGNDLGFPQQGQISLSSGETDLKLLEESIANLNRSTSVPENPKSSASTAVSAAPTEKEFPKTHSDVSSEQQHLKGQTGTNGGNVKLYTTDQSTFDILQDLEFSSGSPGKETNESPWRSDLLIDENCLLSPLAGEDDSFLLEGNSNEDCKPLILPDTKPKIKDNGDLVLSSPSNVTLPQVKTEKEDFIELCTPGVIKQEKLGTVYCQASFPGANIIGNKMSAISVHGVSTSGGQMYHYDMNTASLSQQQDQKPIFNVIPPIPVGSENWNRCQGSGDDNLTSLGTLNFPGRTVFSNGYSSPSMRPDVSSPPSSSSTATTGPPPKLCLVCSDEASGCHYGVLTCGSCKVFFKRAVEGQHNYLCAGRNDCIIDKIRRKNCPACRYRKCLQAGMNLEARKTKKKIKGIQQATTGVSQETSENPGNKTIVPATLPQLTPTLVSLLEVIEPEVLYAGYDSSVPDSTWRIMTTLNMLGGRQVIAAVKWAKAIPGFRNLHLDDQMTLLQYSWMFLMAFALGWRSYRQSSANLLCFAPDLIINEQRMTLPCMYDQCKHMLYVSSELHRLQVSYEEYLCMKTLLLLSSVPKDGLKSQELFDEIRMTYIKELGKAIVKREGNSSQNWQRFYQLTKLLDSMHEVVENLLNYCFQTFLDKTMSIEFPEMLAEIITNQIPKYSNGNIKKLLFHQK
Kind of data set: Transactivation activity at glucocorticoid receptor in human HeLa cells transfected with luciferase gene linked to MMTV promoter by luciferase assay. It is filed as cell-based.

For another data set, the target named is T3, Progesterone receptor (Homo sapiens, UniProt P06401).
T3 sequence (P06401 whole entry): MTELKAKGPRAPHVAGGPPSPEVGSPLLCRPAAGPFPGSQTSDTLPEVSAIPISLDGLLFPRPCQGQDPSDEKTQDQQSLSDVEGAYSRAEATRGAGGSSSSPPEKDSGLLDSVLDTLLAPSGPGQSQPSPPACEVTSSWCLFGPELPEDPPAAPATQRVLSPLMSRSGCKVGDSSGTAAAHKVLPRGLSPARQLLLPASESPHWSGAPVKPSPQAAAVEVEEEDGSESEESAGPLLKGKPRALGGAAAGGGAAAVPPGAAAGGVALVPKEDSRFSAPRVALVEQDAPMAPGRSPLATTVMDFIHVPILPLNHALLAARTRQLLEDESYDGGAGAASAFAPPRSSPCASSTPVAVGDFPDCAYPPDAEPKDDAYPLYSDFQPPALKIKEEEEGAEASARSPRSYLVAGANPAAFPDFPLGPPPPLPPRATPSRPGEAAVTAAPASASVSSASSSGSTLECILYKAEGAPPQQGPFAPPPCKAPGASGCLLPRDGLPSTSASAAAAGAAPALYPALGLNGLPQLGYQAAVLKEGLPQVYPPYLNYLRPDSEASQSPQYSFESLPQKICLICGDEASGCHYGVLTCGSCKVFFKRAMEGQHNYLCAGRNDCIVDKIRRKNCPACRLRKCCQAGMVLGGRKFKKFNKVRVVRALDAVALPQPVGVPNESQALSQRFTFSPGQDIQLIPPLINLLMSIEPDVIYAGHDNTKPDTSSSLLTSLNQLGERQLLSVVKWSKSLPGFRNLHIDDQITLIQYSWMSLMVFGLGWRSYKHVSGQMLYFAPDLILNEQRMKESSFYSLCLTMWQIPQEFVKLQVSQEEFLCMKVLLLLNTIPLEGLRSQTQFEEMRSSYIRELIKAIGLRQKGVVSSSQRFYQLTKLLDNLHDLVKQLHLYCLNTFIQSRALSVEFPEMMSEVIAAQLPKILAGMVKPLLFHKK
Briefly: Binding affinity to progesterone receptor expressed in baculovirus-infected insect cells using tetramethylrhodamine labeled RU-486 by fluorescence polarization microplate assay. In general terms: Polarisation of emitted light reports the rotation of a fluorescent probe.

The target of data set [5] is T2, Glucocorticoid receptor. Briefly: Binding affinity to glucocorticoid receptor expressed in baculovirus-infected insect cells using tetramethylrhodamine labeled Dexamethasone by fluorescence polarization microplate assay.

Take `CC(C)(C[C@@](O)(Cc1cc2ccncc2[nH]1)C(F)(F)F)c1cc(F)ccc1O`: the inhibition in vivo at 30 mg/kg with Mus musculus is 92%. Besides, the half-inhibitory concentration (IC50) in data set [1] amounted to 210 nM; at Glucocorticoid receptor [4], 80 nM; at Progesterone receptor it was 1200 nM; on Glucocorticoid receptor [5], 2.1 nM. In addition, in data set [2], the Vd turned out to be 7.6 L/kg. This molecule showed a F in the data set with Rattus norvegicus of 48%. Besides, in data set [3], the half-life was 1.85 h.

By inhibition in vivo is commonly meant how much of the control response was suppressed. One may read the IC50 as the concentration that gives 50% inhibition. A high value points to weaker potency. Usually half-life stands for the time in which the quantity being followed falls by half. Read a high half-life as slow loss.
